From US10167299B2, “1-(3-aminopropyl) substituted cyclic amine compounds, preparation method therefor, and pharmaceutical compositions and uses thereof” (SHANGHAI INSTITUTE OF MATERIA MEDICA, CHINESE ACADEMY OF …, priority 2013, dated 2019)
Like-named read-outs stand apart in the source and are kept apart here.

Target: CCR5 (Homo sapiens (Human), UniProt P51681)
Assay: Calcium flux inhibition experiment
Type: cell-based
Details: for calcium influx inhibition effect in words, versus positive control compounds: conclusion from Table 1
Source text: Experiment apparatus: FlexStation II
Experiment materials: HEK293/CCR5-Gα16 cell line, Fluo-4calcium dye (fluorescent-4 calcium ion dye) and FlexStation instrument.
Experiment theory: Activation of the receptor can cause the activation of Gα16 protein, thereby activating phospholipase C (PLC) to generate IP3 and DAG by establishing CCR5 and Ga16 co-transfected cell line. IP3 can bind to IP3 receptors on the endoplasmic reticulum and mitochondria in a cell, which can cause the release of intracellular calcium. Thus, determination of changes in intracellular calcium can be used as a method to detect CCR5 activation state. Fluo-4/AM is a fluorescent probe indicator for calcium used to measure calcium ion. As a non-polar lipid-soluble compound, after it enters into cells, AM group is dissociated to release Fluo-4 under the effect of cell lipolysis enzyme. Fluo-4 is a polar molecule and not easy to go through the lipid bilayer membrane, therefore it can stay within the cells for a long time. Ultimately, the level of activated Ga protein can be reflected by measuring the excited fluorescence intensity. If the screened compound can activate CCR5, it can greatly increase the calcium flux reaction; on the contrary, if the screened compound can antagonize CCR5, it can greatly reduce calcium flux reaction.
1. HEK293 cells which can stably express CCR5 were inoculated in a 96-well plate and incubated overnight.
2. The medium in each well into which cells were innoculated was removed and 40 μl/well of freshly prepared dye was added. The plate was placed in a 37° C. incubator and incubated for 40 minutes at constant temperature.
3. The medicament to be determined was diluted with calcium buffer to eight concentration gradients, which is 1×10^−4 M, 1×10^−5 M, 1×10^−6 M, 1×10^−7 M, 1×10^−8 M, 1×10^−9 M, 1×10^−10 M, and 1×10^−11 M, respectively, and homogeneously mixed.
4. The dye was removed. Freshly prepared calcium buffer was used to wash for one time, 50 μl of calcium buffer was added.
5. FlexStation II was used for detection. 25 μl of calcium buffer containing the medicament to be determined was added automatically from the 15th second.

[1] = HEK293/CCR5-Gα16 cell line, calcium flux, read-out: CCR5 IC50

Chain of CCR5 (P51681 whole entry): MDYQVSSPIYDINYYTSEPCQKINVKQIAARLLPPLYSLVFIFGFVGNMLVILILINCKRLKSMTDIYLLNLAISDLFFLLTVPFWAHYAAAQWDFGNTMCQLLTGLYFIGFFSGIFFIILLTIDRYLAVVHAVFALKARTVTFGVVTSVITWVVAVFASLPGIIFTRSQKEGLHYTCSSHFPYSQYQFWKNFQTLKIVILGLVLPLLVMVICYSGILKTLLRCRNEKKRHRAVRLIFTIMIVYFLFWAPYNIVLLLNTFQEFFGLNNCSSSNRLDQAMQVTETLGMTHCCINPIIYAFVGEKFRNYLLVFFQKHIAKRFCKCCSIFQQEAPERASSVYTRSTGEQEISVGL

Compound | IC50 [1] | calcium influx inhibition effect in words, versus positive control compounds | IC50
CCC(=O)N[C@@H](CCN1C2CCC1CC(n1c(C)nc3c1CCN(C(C)=O)C3)C2)c1nccs1 (stereo partly drawn) [Compound 124, N-{(1S)-3-[(3-endo)-3-(5-acetyl-2-methyl-4,5,6,7-tetrahydro-1H-imidazo[4,5-c]pyridin-1-yl)-8-azabicyclo[3.2.1]octane-8-yl]-1-(thiazol-2-yl)-propyl}propanamide] | 11.2 nM | better than the positive control compounds | 
COc1ccc([C@H](CCN2C3CCC2CC(n2c(C)nnc2C(C)C)C3)NC(=O)Cc2nnn[nH]2)s1 (stereo partly drawn) [Compound 160, N-[(1S)-3-[exo-3-(3-isopropyl-5-methyl-4H-1,2,4-triazol-4-yl)-8-azabicyclo[3.2.1]octane-8-yl]-1-(5-methoxythiophen-2-yl)propyl]-2-(1H-tetrazol-5-yl)acetamide] |  | better than the positive control compounds | 1.34 nM
Cc1nc2c(n1C1CC3CCC(C1)N3CC[C@H](NC(=O)C1CCC(F)(F)CC1)c1ccsc1)CCN(C(=O)C(C)C)C2 (stereo partly drawn) [Compound 43, 4,4-difluoro-N-{(1S)-1-(thiophen-3-yl)-3-[(3-endo)-3-(5-isobutyryl-2-methyl-4,5,6,7-tetrahydro-1H-imidazo[4,5-c]pyridin-1-yl)-8-azabicyclo[3.2.1]octane-8-yl]propyl}cyclohexane-1-carboxamide] | 8.34 nM |  | 
Cc1nnc(C(C)C)n1C1CC2CCC(C1)N2CC[C@H](NC(=O)Cn1ncnn1)c1ccc(C#N)s1 (stereo partly drawn) [Compound 155, N-[(1S)-3-[exo-3-(3-isopropyl-5-methyl-4H-1,2,4-triazol-4-yl)-8-azabicyclo[3.2.1]octane-8-yl]-1-(5-cyanothiophen-2-yl)propyl]-2-(2H-tetrazol-2-yl)acetamide] |  | comparable to the positive control compounds | 8.23 nM
CCc1ccc([C@H](CCN2C3CCC2CC(n2c(C)nnc2C(C)C)C3)NC(=O)C2CCCC2)s1 (stereo partly shown) [Compound 66] | 2.02 nM | better than the positive control compounds | 
CC(=O)Nc1ccc([C@H](CCN2C3CCC2CC(n2c(C)nnc2C(C)C)C3)NC(=O)C2CCCCC2)s1 (stereo partly drawn) [Compound 138, N-[(1S)-3-[exo-3-(3-isopropyl-5-methyl-4H-1,2,4-triazol-4-yl)-8-azabicyclo[3.2.1]octane-8-yl]-1-(5-acetamidothiophen-2-yl)propyl]cyclohexane-1-carboxamide] | 9.75 nM | comparable to the positive control compounds | 
Cc1nnc(C(C)C)n1C1CC2CCC(C1)N2CC[C@H](NC(=O)C1CCN(S(C)(=O)=O)CC1)c1cccs1 (stereo partly drawn) [Compound 146, N-[(1S)-3-[exo-3-(3-isopropyl-5-methyl-4H-1,2,4-triazol-4-yl)-8-azabicyclo[3.2.1]octane-8-yl]-1-(thiophen-2-yl)propyl]-1-methylsulfonylpiperidine-4-carboxamide] | 1.75 nM | better than the positive control compounds | 
Cc1nnc(C(C)C)n1C1CC2CCC(C1)N2CC[C@H](NC(=O)Cn1ncnn1)c1ccc(Cl)s1 (stereo partly drawn) [Compound 156, N-[(1S)-3-[exo-3-(3-isopropyl-5-methyl-4H-1,2,4-triazol-4-yl)-8-azabicyclo[3.2.1]octane-8-yl]-1-(5-chlorothiophen-2-yl)propyl]-2-(2H-tetrazol-2-yl)acetamide] | 9.85 nM | comparable to the positive control compounds | 
CC(=O)Nc1ccc([C@H](CCN2C3CCC2CC(n2c(C)nnc2C(C)C)C3)NC(=O)C2CCCC2)s1 (stereo partly drawn) [Compound 139, N-[(1S)-3-[exo-3-(3-isopropyl-5-methyl-4H-1,2,4-triazol-4-yl)-8-azabicyclo[3.2.1]octane-8-yl]-1-(5-acetamidothiophen-2-yl)propyl]cyclopentane-1-carboxamide] | 12.3 nM |  | 
